In PMC9220251, “Modulation of the 20S Proteasome Activity by Porphyrin Derivatives Is Steered through Their Charge Distribution” (Biomolecules, 2022):

Experiments:
[1] = biological target: T1, human 20S proteasome (h20S); experiment: Suc-LLVY-AMC hydrolysis, global fit of kcat and Km against TMPC (two-state model, n = […], m = […]); assay type: biochemical; settings: competitive inhibitory site, substrate-free enzyme in basal state A; model also has three cooperative allosteric sites and state B with separate constants (KAU, KAL, KBU, KBL, KBI); 50 mM Tris-HCl pH
T1 construct: gene PSMA6; purified 20S core particle, purchased from Boston Biochem; 28 subunits in four heptameric rings; no regulatory particle; with Proteasome subunit beta type-6; Proteasome subunit beta type-7; Proteasome subunit beta type-3; Proteasome subunit beta type-2; Proteasome subunit beta type-1; Proteasome subunit beta type-4

[2] = tested on: T1, human 20S proteasome (h20S); experiment: STD-NMR and WaterLOGSY; assay type: binding; settings: 50 mM HEPES, 100 mM NaCl, 1 mM DTT, 298 K; TMPC 175 μM

For C[n+]1ccc(-c2c3nc(c(-c4cc[n+](C)cc4)c4ccc([nH]4)c4ccc([nH]4)c(-c4cc[n+](C)cc4)c4ccc2[nH]4)C=C3)cc1 [TMPC], which Kd [1] is on record?
Its Kd is 1000 nM.

What about the “STD-NMR and WaterLOGSY” value [2] of the same molecule?
Its value is “clearly indicate that the ligand interacts with the h20S”.
